# Like-named read-outs stand apart in the source and are kept apart here.
# Legend:
# ACSS2 [1] = biological target: T1, ACSS2 (Homo sapiens, UniProt Q9NR19); assay: Acyl-CoA synthetases selectivity panel: ACSS2; format: biochemical; design: purchased Cusabio, China; settings: human recombinant protein, substrate acetate, AMP readout by HPLC; read-out: HPLC based activity assays IC50 (UM) ACSS2
# Excerpt: (§1) The biochemical assays for testing the selectivity of the compounds according to this invention, were done using human recombinant proteins (Cusabio, China). The readout of the assays was AMP levels, the […] of the reactions, by HPLC method. The acyl substrates (Sigma-Aldrich) of the assays were as followed: ACSS1/ACSS2—Acetate, AACS-Acetoacetyl, ACSF2—Octanoate and ACSL5—Palmitate. The protein in this panel include ACSS1, the closest homolog of ACSS2, in addition to representative short/medium/long chain acyl-CoA syntatases.
# ACSS2 [2] = biological target: T1, ACSS2; assay: Thermal stabilization of recombinant ACSS2 protein (Nano-DSF); format: binding
# Excerpt: Thermal stabilization of recombinant ACSS2 protein by ACSS2 inhibitors. Interaction between the compound and recombinant ACSS2 protein was done by non-labeled Nano-DSF technic using the parameters described below. NanoDSF is a modified differential scanning fluorimetry method to determine protein stability that uses tryptophan or tyrosine fluorescence to monitor protein unfolding. The binding of compound to the protein leads to thermal stabilization that is quantified as the delta in the thermal melting points.
# AACS = biological target: T2, AACS (Homo sapiens, UniProt Q86V21); assay: Acyl-CoA synthetases selectivity panel: AACS; format: biochemical; settings: human recombinant protein, substrate acetoacetyl, AMP readout by HPLC; read-out: HPLC based activity assays IC50 (UM) AACS
# T2 construct: purchased Cusabio, China
# T2 sequence (Q86V21 1-672): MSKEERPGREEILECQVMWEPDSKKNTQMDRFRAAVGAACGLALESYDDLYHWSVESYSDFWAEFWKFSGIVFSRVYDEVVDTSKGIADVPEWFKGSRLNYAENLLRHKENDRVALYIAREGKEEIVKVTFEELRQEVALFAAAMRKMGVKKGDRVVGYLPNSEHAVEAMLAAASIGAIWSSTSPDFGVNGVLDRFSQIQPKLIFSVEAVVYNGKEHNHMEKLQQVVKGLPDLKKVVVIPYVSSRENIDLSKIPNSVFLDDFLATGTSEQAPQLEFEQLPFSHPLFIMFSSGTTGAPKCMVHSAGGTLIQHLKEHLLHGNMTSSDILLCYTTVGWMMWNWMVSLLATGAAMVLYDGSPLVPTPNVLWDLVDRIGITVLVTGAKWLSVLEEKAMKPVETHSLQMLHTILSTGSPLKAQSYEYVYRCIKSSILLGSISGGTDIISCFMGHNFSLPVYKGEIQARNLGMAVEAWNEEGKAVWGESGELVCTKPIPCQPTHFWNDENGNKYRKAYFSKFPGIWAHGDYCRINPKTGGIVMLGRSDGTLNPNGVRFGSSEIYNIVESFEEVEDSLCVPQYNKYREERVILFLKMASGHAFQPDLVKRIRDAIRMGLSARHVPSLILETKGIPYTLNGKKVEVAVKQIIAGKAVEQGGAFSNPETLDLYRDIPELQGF
# Excerpt: as §1
# ACSS2 [3] = biological target: T1, ACSS2; assay: Binding to recombinant ACSS2 protein by Label Free MST; settings: for Kd: read-out: Kd [uM] Fluorescence
# Excerpt: Binding of ACSS2 inhibitor to recombinant ACSS2 protein by Label Free MST. MicroScale Thermophoresis (MST) is an optical fluorescent method that records the changes in fluorescence of a target molecule as a function of temperature and the concentration of the cognate ligand molecule. The binding of small-molecules to the target proteins lead to changes in the fluorescence that can be measured and translated into binding Kd.
# ACSS1 = biological target: T3, ACSS1 (Homo sapiens, UniProt Q9NUB1); assay: Acyl-CoA synthetases selectivity panel: ACSS1; format: biochemical; settings: human recombinant protein, substrate acetate, AMP readout by HPLC; read-out: HPLC based activity assays IC50 (UM) ACSS1
# T3 construct: purchased Cusabio, China
# T3 sequence (Q9NUB1 38-689): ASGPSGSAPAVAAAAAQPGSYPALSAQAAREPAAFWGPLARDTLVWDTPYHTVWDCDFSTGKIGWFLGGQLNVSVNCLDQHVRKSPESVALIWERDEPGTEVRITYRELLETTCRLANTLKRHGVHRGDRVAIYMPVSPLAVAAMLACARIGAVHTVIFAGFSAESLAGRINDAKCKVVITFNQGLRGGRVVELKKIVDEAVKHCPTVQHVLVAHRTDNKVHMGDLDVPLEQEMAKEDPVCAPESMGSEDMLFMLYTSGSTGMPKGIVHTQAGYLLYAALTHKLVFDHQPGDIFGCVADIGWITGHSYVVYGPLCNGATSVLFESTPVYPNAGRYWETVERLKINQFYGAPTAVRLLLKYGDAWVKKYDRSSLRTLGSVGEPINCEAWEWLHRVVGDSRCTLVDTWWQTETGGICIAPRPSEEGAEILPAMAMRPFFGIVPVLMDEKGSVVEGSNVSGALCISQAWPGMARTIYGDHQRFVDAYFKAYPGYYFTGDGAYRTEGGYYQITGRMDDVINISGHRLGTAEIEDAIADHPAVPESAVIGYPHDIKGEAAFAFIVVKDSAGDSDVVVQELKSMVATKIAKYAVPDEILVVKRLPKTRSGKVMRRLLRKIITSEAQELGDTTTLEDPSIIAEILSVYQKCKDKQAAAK
# Excerpt: as §1
# T1 sequence (Q9NR19 whole entry): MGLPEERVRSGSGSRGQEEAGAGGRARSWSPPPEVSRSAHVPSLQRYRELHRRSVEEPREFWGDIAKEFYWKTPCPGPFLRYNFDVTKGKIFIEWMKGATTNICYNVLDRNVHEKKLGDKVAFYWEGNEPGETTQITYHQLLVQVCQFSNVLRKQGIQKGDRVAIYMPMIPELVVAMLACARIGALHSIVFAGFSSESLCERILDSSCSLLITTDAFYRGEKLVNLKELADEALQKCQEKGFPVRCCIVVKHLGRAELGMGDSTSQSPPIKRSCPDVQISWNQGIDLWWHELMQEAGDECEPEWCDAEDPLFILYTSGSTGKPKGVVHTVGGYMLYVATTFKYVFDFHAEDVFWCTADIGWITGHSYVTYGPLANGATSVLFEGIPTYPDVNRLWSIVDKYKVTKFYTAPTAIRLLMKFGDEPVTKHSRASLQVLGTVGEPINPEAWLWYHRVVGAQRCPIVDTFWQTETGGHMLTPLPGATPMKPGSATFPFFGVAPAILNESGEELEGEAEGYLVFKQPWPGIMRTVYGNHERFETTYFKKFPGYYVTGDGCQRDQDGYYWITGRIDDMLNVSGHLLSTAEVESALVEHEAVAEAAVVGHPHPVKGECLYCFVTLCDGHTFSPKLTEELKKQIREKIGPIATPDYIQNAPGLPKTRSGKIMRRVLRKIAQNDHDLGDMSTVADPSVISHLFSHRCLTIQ
smiles,measurement,setting,value
"COC(=O)c1cccc(N2N=C(C)C(C(=O)Nc3cccc(C(C)(F)F)c3)C2=O)c1 (stereo not shown) [compound 261, methyl 3-(4-((3-(1,1-difluoroethyl)phenyl)carbamoyl)-3-methyl-5-oxo-4,5-dihydro-1H-pyrazol-1-yl)benzoate]",IC50,ACSS2 [1],< 1 nM
same,thermal shift in the melting temperature of ACSS2,"ACSS2 [2]; 0.03 mg/ml ACSS2, compound at different concentrations",dose-dependent thermal shift in the melting temperature of ACSS2
same,thermal shift in the presence of ATP or ATP and CoA versus buffer alone,"ACSS2 [2]; 0.3 mM ATP, 0.3 mM ATP + 0.01 mM CoA",higher in the presence of ATP or ATP and CoA
same,IC50,AACS,24000 nM
same,Kd,"ACSS2 [3]; Buffer A (no ATP, no CoA)",0.46 ± 0.21 µM
same,Kd,"ACSS2 [3]; Buffer B (+ATP), 0.3 mM ATP",0.03 ± 0.01 µM
same,Kd,"ACSS2 [3]; Buffer C (+ATP, +CoA), 0.3 mM ATP, 0.01 mM CoA",0.04 ± 0.02 µM
same,Kd,"ACSS2 [3]; Buffer D (+CoA), 0.01 mM CoA",0.61 ± 0.17 µM
same,reduction of binding Kd when ATP was added to the buffer,ACSS2 [3]; Label Free MST,10 fold
same,IC50,ACSS1,1000 to 10000 nM

# From patent publication US20250186433A1, “ACSS2 INHIBITORS AND METHODS OF USE THEREOF” (EpiVario, Inc., priority 2017, published 2025)
